Literature values, collected in PMC12311729, “Probing the Mechanism of L‑DOPA 2,3-Dioxygenase Using Synthetic Derivatives of 3,4-Dihydroxyhydrocinnamic Acid” (ACS Omega, 2025).

Experiments:
[1] = design: method as in Biochemistry 2021, 60, 32, 2492–2507; conditions: ref Biochemistry 2021, 60, 32, 2492–2507, cited from earlier work
[2] = design: method as in Biochemistry 2021, 60, 32, 2492–2507; conditions: percentage of L-DOPA; ref Biochemistry 2021, 60, 32, 2492–2507; cited from earlier work
[3] = target: L-DOPA 2,3-dioxygenase from S. lincolnensis (LmbB1) (Streptomyces lincolnensis, UniProt Q54354); design: method as in Biochemistry 2021, 60, 32, 2492–2507; conditions: percentage of L-DOPA; ref Biochemistry 2021, 60, 32, 2492–2507; cited from earlier work
[4] = target: L-DOPA 2,3-dioxygenase from S. hygroscopicus jingganensis (ShjDDO) (Streptomyces hygroscopicus, UniProt H2JL11); design: method as in Biochemistry 2021, 60, 32, 2492–2507; conditions: percentage of L-DOPA; ref Biochemistry 2021, 60, 32, 2492–2507; cited from earlier work
[5] = design: method as in Biochemistry 2021, 60, 32, 2492–2507; conditions: percentage of L-DOPA; ref Biochemistry 2021, 60, 32, 2492–2507; cited from earlier work; remark: listed apart in the source

L-DOPA 2,3-dioxygenase from S. lincolnensis (LmbB1), sequence (Q54354 entry or part of it): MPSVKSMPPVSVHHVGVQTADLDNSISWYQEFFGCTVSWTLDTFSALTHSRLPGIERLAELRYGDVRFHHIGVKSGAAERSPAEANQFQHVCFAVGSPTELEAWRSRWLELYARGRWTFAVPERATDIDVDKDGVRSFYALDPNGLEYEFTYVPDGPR
L-DOPA 2,3-dioxygenase from S. hygroscopicus jingganensis (ShjDDO), sequence (H2JL11 1-162): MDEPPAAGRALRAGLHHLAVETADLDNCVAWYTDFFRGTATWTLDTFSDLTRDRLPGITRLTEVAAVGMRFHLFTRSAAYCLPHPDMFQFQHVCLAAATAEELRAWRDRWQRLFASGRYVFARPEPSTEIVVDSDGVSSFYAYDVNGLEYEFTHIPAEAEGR

Structure (SMILES): N#Cc1cc(O)c(O)cc1CCN [Compound 6-cyanoDA]
- Catecholic pKa value relative to L-DOPA x 100 ([1]; percentage of L-DOPA): 80%
- pK a value of dopamine counterpart ([1]; similarly 6-substituted dopamine): 7.03 ± 0.06
- E1/2 (mV) at pH 7.4 relative to L-DOPA x 100 [2]: 129%
- kSP, O2 (μM^-1 min^-1) at pH 7.5 relative to L-DOPA x 100 for LmbB1 [3]: 16%
- kSP, O2 (μM^-1 min^-1) at pH 7.5 relative to L-DOPA x 100 for ShjDDO [4]: 3%
- CSEV (Å^3) relative to L-DOPA x 100 [5]: 94%
